From US6384224B2, “Certain 1-(2-naphthyl) and 1-(2-azanaphthyl)-4-(1-phenylmethyl) piperazines; dopamine receptor subtype specific ligands” (Neurogen Corporation, priority 1997, dated 2002)

test system: D4 receptors; assay: D4 receptor binding, 3H-YM 09151-2 displacement, COS cell pellets; design: species or system African Green monkey; conditions: evaluated in the assays described above (Example 7); read-out: interaction with the D4 receptor subtype (IC50)
Description: (§1) Pellets of COS cells containing recombinantly produced D2 or D4 receptors from African Green monkey are used for the assays. The sample is homogenized in 100 volumes (w/vol) of 0.05 M Tris HCl buffer at 4° C. and pH 7.4. The sample is then centrifuged at 30,000×g and resuspended and rehomogenized. The sample is again centrifuged as described above and the final tissue sample is frozen until use. The tissue is resuspended 1:20 (wt/vol) in 0.05 M Tris HCl buffer containing 100 mm NaCl.
(§2) Incubations are carried out at […] and contain 0.4 ml of tissue sample, 0.5 nM ^3H-YM 09151-2 (Nemonapride, cis-5-Chloro-2-methoxy-4-(methylamino)-N-(2-methyl-2-(phenylmethyl)-3-pyrrolidinyl)benzamide) and the compound of interest in a total incubation of 1.0 ml. Nonspecific binding is defined as that binding found in the presence of […]; without further additions, nonspecific binding is less than 20% of total binding. Binding characteristics for examples of compounds encompassed within Formula I for the D2 and D4 receptor subtypes are shown in Table 2 for rat striatal homogenates.

Point of comparison: `c1ccc(CN2CCN(c3ccc4ccccc4n3)CC2)cc1` [Comparative Compound B, 1-(quinolin-2-yl)-4-benzylpiperazine, reference compound], IC50 194 nM. Against it:
- c1ccc(CN2CCN(c3ccc4ccccc4c3)CC2)cc1 [Comparative Compound A, 1-naphth-2-yl-4-benzylpiperazine, reference compound] — 5.9-fold lower, 33 nM

same assay, conditions: recombinant receptor in COS cells; 0.5 nM 3H-YM 09151-2

Point of comparison: `Clc1ccc(CN2CCN(c3ccc4ccccc4c3)CC2)cc1` [Compound 6], Ki 9 nM. Against it:
- Cc1ccc(CN2CCN(c3ccc4ccccc4n3)CC2)cc1 [Compound 2] — within 1.5-fold, 8 nM
- Clc1ccc(CN2CCN(c3cnc4ccccc4n3)CC2)cc1 [Compound 3] — within 1.5-fold, 11 nM
- Clc1ccc(CN2CCN(c3ccc4c(n3)CCCC4)CC2)cc1 [Compound 7] — within 1.5-fold, 7 nM

molecular target: T1, D2 receptors (Chlorocebus aethiops, UniProt P52702); assay: D2 receptor binding, 3H-YM 09151-2 displacement, COS cell pellets; design: species or system African Green monkey; conditions: recombinant receptor in COS cells; 0.5 nM 3H-YM 09151-2
T1 construct: expressed in transfected cells; host or cells: COS cells
Description: as §1, §2

T1 sequence (P52702 whole entry): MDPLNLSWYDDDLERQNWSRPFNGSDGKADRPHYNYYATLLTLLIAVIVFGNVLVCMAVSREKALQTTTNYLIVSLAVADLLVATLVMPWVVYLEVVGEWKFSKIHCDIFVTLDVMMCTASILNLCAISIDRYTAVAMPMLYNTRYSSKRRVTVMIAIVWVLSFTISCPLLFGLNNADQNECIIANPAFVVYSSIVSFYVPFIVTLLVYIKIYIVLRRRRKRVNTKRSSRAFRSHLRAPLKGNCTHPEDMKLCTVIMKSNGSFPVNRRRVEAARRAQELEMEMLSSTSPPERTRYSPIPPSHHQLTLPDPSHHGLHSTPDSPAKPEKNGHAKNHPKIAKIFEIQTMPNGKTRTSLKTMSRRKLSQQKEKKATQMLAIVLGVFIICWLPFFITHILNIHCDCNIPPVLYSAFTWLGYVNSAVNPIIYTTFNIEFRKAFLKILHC

Point of comparison: `Clc1ccc(CN2CCN(c3ccc4c(n3)CCCC4)CC2)cc1` [Compound 7], Ki 1930 nM. Against it:
- Cc1ccc(CN2CCN(c3ccc4ccccc4n3)CC2)cc1 [Compound 2] — higher, > 4000 nM
- Clc1ccc(CN2CCN(c3cnc4ccccc4n3)CC2)cc1 [Compound 3] — higher, > 4000 nM
- Clc1ccc(CN2CCN(c3ccc4ccccc4c3)CC2)cc1 [Compound 6] — higher, > 4000 nM

test system: not given; assay: not given; conditions: not given

First: Clc1ccc(CN2CCN(c3ncc4ccccc4n3)CC2)cc1.O=C(O)C(=O)O
Second: Clc1ccc(CN2CCN(c3cnc4ccccc4n3)CC2)cc1.O=C(O)C(=O)O
The melting point of the first is lower: 207 to 209 °C for the first, 209 to 212 °C for the second.

First: Br.Cc1nc2ccccc2nc1N1CCN(Cc2ccc(Cl)cc2)CC1
Second: Br.Cc1cc(N2CCN(Cc3ccc(Cl)cc3)CC2)nc2ccccc12
The melting point of the first is higher: 293 to 295 °C for the first, 215 to 217 °C for the second.

First: Cc1ccc(CN2CCN(c3ccc4ccccc4n3)CC2)cc1.Cl
Second: Br.Clc1ccc(CN2CCN(c3ccc4ccccc4n3)CC2)cc1
The melting point of the first is higher: 278 to 280 °C for the first, 268 to 271 °C for the second.

First: CC(C)c1ccc(CN2CCN(c3ccc4ccccc4n3)CC2)cc1.Cl
Second: CC(C)(C)c1ccc(CN2CCN(c3ccc4ccccc4n3)CC2)cc1.Cl
The melting point of the first is lower: 270 to 271 °C for the first, 285 to 287 °C for the second.

First: Br.Clc1ccc(CN2CCN(c3ccc4ccccc4n3)CC2)cc1Cl
Second: Br.c1ccc2nc(N3CCN(Cc4ccc5c(c4)OCO5)CC3)ccc2c1
The melting point of the first is higher: 285 to 287 °C for the first, 279 to 280 °C for the second.

First: Br.FC(F)(F)c1ccc(CN2CCN(c3ccc4ccccc4n3)CC2)cc1
Second: FC(F)(F)Oc1ccc(CN2CCN(c3ccc4ccccc4n3)CC2)cc1 [Example 3(l), 1-(quinolin-2-yl)-4-(1-[4-trifluoromethoxyphenyl]methyl)piperazine]
The melting point of the first is higher: 271 to 273 °C for the first, 109 to 110 °C for the second.

Compared with `Br.Cc1ccc2c(C)cc(N3CCN(Cc4ccc(Cl)cc4)CC3)nc2c1`, `Br.Cc1cc(N2CCN(Cc3ccc(Cl)cc3)CC2)nc2c(C)cccc12` is lower in melting point: 295 to 296 °C for the first, 262 to 264 °C for the second.

First: Fc1cc(N2CCN(Cc3ccccc3)CC2)nc2ccccc12.O=C(O)C(=O)O
Second: Fc1ccc(CN2CCN(c3cc(F)c4ccccc4n3)CC2)cc1.O=C(O)C(=O)O
The melting point of the first is lower: 186 to 187 °C for the first, 191 to 193 °C for the second.

Compared with `COc1ccc2nc(N3CCN(Cc4ccc(Cl)cc4)CC3)cc(C)c2c1.Cl`, `Cl.Clc1ccc(CN2CCN(c3ccc4ccccc4c3)CC2)cc1` is lower in melting point: 250 to 253 °C for the first, 216 to 218 °C for the second.

First: Br.Cc1ccc(CN2CCN(c3ccc4ccccc4c3)CC2)cc1
Second: Br.Fc1ccc(CN2CCN(c3ccc4ccccc4c3)CC2)cc1
The melting point of the first is lower: 222 to 223 °C for the first, 244 to 246 °C for the second.

First: Br.Fc1cccc(CN2CCN(c3ccc4ccccc4c3)CC2)c1
Second: Br.Fc1ccccc1CN1CCN(c2ccc3ccccc3c2)CC1
The melting point of the first is higher: 253 to 255 °C for the first, 239 to 240 °C for the second.
